What was measured:
CDK1 = target: T1, CDK1 (Homo sapiens, UniProt P06493); test: CDK-1 kinase screening assay (33P-ATP FlashPlate); format: biochemical; details: human CDK1 with cyclin B; 10 μM ATP; 1 hr at 30° C
T1 construct: purchased New England Biolabs, Beverly, Mass; 6020; host or cells: insect cells
Experimental: A kinase reaction mixture was prepared containing 50 mM Tris-HCl pH=8, 10 mM MgCl2, 0.1 mM […], 1 mM DTT, 10 μM ATP, 0.025 μM biotinylated histone-H1 peptide substrate and 0.2 μCuries per well ^33P-γ-ATP (2000-3000 Ci/mmol). 70 μL of the kinase reaction mixture was dispensed into the well of a streptavidin coated FlashPlate™ (Cat. # SMP103, NEN, Boston, Mass.).
Test compound stock in 100% DMSO (1 μL) was added to the wells resulting in a final concentration of 1% DMSO in the reaction with a 100 μL final reaction volume. Each enzyme was diluted in 50 mM Tris-HCl pH=8.0, 0.11% BSA and 30 μL was added to each well to initiate the reaction. The reaction was incubated for one hour at 30° C. At the end of the 1 hr incubation, the reaction was terminated by aspirating the mixture from the plate and washing the wells twice with PBS containing 100 mM EDTA. The biotinylated peptide substrate became immobilized on the Flashplate™ and the incorporation of ^33P-γ-ATP was measured by reading the plate on a scintillation counter. Inhibition of the enzymatic activity was measured by observing a reduced amount of ^33P-γ-ATP incorporated into the immobilized peptide.
The CDK1 enzyme was isolated from insect cells expressing both the human CDK1 catalytic subunit (Accession number NM_001786) and its positive regulatory subunit cyclin B (New England Biolabs, Beverly, Mass.; Cat. # 6020). The assay used 30 ng of the N-terminal biotinylated peptide biotin-[…]-amide (Cyclin dependent kinase 1) per well.
A maximum and minimum signal for the assay was determined on each plate. The percent inhibition of a test compound was calculated according to the formula: […]
For a series of test concentrations, the IC50 was derived by graphing percent inhibition against the log of the concentrations tested for a given compound with results shown in Table 1.
For compounds with multiple values, each value represents a separate assay result.

VEGF-R2 = target: T2, VEGF-R2 (Rattus norvegicus, UniProt O08775); test: VEGF-R2 kinase screening assay (33P-ATP FlashPlate); format: biochemical; details: rat VEGF-R2 kinase domain; 10 μM ATP; 1 hr at 30° C;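 further: Read-out is ³³P incorporation from ³³P-γ-ATP into biotinylated peptide substrate captured on streptavidin FlashPlate, counted by scintillation, 1% DMSO final, inhibition scaled between per-plate maximum and minimum signals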
T2 construct: polyhistidine (N)

HER2 = target: T3, HER2 (Homo sapiens, UniProt P04626); test: HER2 kinase screening assay (33P-ATP FlashPlate); format: biochemical; details: GST-HIS6 HER-2 aa 679 to 1255; 10 μM ATP; 1 hr at 30° C;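 further: Biotin-poly(GT) 4:1 peptide captured on streptavidin FlashPlate, 33P transfer from γ-ATP read by scintillation counting, lower incorporation means inhibition, 1% DMSO final, 100 µL reaction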
T3 construct: GST (Glutathione-S-Transferase) (N); HIS6 (N); thrombin cleavage site (N); purchased Proqinase, Freiburg, Germany

Aurora-A = target: T4, Aurora-A (Mus musculus, UniProt P97477); test: Aurora-A kinase screening assay (33P-ATP FlashPlate); format: biochemical; details: 10 μM ATP, 1 hr at 30° C;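 further: His-tagged mouse Aurora-A phosphorylating a biotinylated peptide captured on streptavidin plates, read as 33P uptake by scintillation counting, 1% DMSO, inhibition scaled between per-plate maximum and minimum signals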
T4 construct: polyhistidine (N)
T4 sequence (P97477 1-395): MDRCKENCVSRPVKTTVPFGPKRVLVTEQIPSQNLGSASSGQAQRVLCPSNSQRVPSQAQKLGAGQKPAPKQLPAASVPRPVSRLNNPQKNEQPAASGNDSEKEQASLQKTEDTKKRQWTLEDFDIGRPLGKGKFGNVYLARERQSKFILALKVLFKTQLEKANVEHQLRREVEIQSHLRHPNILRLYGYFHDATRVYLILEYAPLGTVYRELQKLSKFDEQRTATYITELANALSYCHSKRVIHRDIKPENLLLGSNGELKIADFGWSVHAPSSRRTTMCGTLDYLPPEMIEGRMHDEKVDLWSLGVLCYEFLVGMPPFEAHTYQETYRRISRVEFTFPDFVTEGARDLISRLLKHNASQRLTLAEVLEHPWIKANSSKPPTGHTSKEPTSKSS

RET = target: T5, RET (Homo sapiens, UniProt P07949); test: RET kinase screening assay (33P-ATP FlashPlate); format: biochemical; details: human RET kinase domain; 10 μM ATP; 1 hr at 30° C;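 further: biotinylated peptide substrate captured on streptavidin FlashPlate, 33P phosphate transfer read by scintillation counting, 1% DMSO, lower incorporation means inhibition, percent relative to per-plate maximum and minimum signals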
T5 construct: polyhistidine (N)
T5 sequence (P07949 658-1114 limits assumed): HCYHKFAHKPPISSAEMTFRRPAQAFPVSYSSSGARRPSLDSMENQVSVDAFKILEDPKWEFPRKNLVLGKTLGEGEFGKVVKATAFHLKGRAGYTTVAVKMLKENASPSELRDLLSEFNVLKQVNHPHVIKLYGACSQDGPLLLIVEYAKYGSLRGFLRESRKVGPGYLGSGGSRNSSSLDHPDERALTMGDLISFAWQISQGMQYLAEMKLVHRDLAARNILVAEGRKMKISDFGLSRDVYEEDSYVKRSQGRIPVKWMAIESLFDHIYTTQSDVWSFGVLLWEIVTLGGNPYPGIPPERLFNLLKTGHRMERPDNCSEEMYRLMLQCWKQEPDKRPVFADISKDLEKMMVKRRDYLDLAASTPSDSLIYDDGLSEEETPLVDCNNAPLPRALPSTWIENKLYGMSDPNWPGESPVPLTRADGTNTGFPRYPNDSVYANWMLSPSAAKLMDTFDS

[1] = system: HeLa cervical adenocarcinoma; test: Cell Proliferation Inhibition Assay (14C-thymidine incorporation), HeLa; format: cell-based; details: Homo sapiens, HeLa cells;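 further: test compound in DMSO added to cells seeded in scintillating 96-well plates, DMSO-only wells as control, uptake of methyl 14C-thymidine into new DNA counted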
A375 malignant melanoma = test: Cell Proliferation Inhibition Assay (14C-thymidine incorporation), A375; format: cell-based; details: Homo sapiens, A-375, A375 cells;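 further: proliferation measured by radiolabelled thymidine uptake into new DNA, counted in scintillating 96-well plates, compound-treated wells compared with DMSO-only control wells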
HCT-116 colon carcinoma = test: Cell Proliferation Inhibition Assay (14C-thymidine incorporation), HCT-116; format: cell-based; details: Homo sapiens;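 further: proliferation measured as methyl 14C-thymidine uptake into new DNA, counted in 96-well scintillating microplates, compared with DMSO-only control wells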

T3 sequence (P04626 679-1255): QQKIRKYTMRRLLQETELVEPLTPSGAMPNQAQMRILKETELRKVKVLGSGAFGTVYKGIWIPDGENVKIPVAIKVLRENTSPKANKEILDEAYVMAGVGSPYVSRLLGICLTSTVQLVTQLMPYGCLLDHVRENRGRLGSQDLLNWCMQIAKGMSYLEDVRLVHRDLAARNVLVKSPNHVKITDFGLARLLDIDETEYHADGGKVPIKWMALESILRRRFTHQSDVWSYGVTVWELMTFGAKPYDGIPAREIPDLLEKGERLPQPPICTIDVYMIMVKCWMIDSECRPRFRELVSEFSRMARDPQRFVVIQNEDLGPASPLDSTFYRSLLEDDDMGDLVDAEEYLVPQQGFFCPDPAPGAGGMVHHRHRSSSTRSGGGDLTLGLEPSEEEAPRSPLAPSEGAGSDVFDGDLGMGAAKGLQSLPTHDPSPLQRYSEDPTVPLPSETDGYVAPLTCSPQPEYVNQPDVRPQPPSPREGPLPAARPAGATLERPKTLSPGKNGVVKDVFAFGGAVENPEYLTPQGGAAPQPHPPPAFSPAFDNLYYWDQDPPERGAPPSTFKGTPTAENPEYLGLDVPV
T1 sequence (P06493 whole entry): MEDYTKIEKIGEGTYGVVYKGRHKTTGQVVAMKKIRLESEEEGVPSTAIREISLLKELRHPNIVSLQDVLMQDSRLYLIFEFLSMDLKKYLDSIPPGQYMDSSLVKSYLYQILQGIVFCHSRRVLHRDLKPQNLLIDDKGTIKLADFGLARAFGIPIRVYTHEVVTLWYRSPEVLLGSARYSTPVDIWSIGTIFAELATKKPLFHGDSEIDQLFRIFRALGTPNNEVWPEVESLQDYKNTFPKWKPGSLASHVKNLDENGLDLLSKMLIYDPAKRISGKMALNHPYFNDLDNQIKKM
T1 sequence (P14635 whole entry partner): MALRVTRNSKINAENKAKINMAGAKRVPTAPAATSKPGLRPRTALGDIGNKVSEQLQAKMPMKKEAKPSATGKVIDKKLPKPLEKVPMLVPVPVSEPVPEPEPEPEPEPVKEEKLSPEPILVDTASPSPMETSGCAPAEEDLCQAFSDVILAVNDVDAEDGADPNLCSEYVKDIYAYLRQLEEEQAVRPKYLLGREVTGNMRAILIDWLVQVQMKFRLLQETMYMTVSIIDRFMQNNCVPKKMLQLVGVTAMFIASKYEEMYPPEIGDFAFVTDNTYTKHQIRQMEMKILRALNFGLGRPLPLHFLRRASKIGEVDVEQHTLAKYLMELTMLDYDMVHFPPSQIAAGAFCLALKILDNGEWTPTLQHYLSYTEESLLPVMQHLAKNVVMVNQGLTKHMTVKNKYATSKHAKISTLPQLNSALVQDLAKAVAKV
T2 sequence (O08775 786-1343): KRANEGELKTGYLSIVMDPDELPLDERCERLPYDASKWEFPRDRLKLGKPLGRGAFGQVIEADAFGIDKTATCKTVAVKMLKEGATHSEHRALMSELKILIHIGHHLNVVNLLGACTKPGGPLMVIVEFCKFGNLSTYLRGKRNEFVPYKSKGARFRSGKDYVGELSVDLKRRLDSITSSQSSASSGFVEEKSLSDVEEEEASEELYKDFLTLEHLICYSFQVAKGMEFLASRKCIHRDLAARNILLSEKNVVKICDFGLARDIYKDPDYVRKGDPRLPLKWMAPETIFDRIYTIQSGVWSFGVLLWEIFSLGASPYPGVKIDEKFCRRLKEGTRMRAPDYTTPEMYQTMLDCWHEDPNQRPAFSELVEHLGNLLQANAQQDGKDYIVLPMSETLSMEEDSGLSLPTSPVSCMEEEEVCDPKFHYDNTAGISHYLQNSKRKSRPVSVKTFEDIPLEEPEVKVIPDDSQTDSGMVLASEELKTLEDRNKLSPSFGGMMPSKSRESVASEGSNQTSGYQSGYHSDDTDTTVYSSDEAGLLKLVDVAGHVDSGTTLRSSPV

| SMILES | IC50 (CDK1) [nM] | IC50 (VEGF-R2) [nM] | IC50 (HER2) [nM] | IC50 (Aurora-A) [nM] | IC50 (RET) [nM] | IC50 ([1]; HeLa) [nM] | IC50 (A375 malignant melanoma) [nM] | IC50 (HCT-116 colon carcinoma; HCT-116, HCT-116 cells) [nM] | IC50 [1] [nM] | IC50 (HCT-116 colon carcinoma; HCT-116 cells) [nM] |
| --- | --- | --- | --- | --- | --- | --- | --- | --- | --- | --- |
| CCOCCOCc1cccc2[nH]c(-c3n[nH]c4ncc(-c5cncc6ccccc56)cc34)nc12 [Cpd 16, 4-{3-[4-(2-ethoxy-ethoxymethyl)-1H-benzoimidazol-2-yl]-1H-pyrazolo[3,4-b]pyridin-5-yl}-isoquinoline] | 65.5 | 60.7 | > 100000 | > 1000 | > 1000 | 632 | 910 | 237 | – | – |
| CN1CCN(C(=O)c2cccc3[nH]c(-c4n[nH]c5ncc(-c6cncc7ccccc67)cc45)nc23)CC1 [Cpd 23, [2-(5-isoquinolin-4-yl-1H-pyrazolo[3,4-b]pyridin-3-yl)-1H-benzoimidazole-4-yl]-(4-methyl-piperazin-1-yl)-methanone] | 1630 | 6930 | > 10000 | 10900 | > 100000 | 6580 | 2760 | 3170 | – | – |
| O=C(c1cccc2[nH]c(-c3n[nH]c4ncc(-c5cncc6ccccc56)cc34)nc12)N1CCOCC1 [Cpd 24, [2-(5-isoquinolin-4-yl-1H-pyrazolo[3,4-b]pyridin-3-yl)-1H-benzoimidazole-4-yl]-morpholin-4-yl-methanone] | 42 | 4620 | > 10000 | 2790 | ~100000 | 460 | 490 | 743 | – | – |
| CN(C)CCN(C)C(=O)c1cccc2[nH]c(-c3n[nH]c4ncc(-c5cncc6ccccc56)cc34)nc12 [Cpd 26, 2-(5-isoquinolin-4-yl-1H-pyrazolo[3,4-b]pyridin-3-yl)-1H-benzoimidazole-4-carboxylic acid (2-dimethylamino-ethyl)-methyl-amide] | 244 | > 10000 | > 10000 | 12100 | ~100000 | 1160 | 1210 | 890 | – | – |
| O=C(NC1CCCC1)c1cccc2[nH]c(-c3n[nH]c4ncc(-c5cncc6ccccc56)cc34)nc12 [Cpd 27, 2-(5-isoquinolin-4-yl-1H-pyrazolo[3,4-b]pyridin-3-yl)-1H-benzoimidazole-4-carboxylic acid cyclopentylamide] | 31.7 | 1040 | > 10000 | > 1000 | > 1000 | 163 | 75.2 | 78.7 | – | – |
| CN1CCC(NC(=O)c2cccc3[nH]c(-c4n[nH]c5ncc(-c6cncc7ccccc67)cc45)nc23)CC1 [Cpd 28, 2-(5-isoquinolin-4-yl-1H-pyrazolo[3,4-b]pyridin-3-yl)-1H-benzoimidazole-4-carboxylic acid (1-methyl-piperidin-4-yl)-amide] | 724 | > 100000 | > 10000 | > 10000 | > 100000 | 26900 | 5620 | 4990 | – | – |
| CC(C)OCc1cccc2[nH]c(-c3n[nH]c4ncc(-c5cncc6ccccc56)cc34)nc12 [Cpd 32, 4-[3-(4-isopropoxymethyl-1H-benzoimidazol-2-yl)-1H-pyrazolo[3,4-b]pyridin-5-yl]-isoquinoline] | 98.7 | ~100 | > 100000 | > 1000 | > 100000 | – | 905 | – | 2140 | 2880 |
| COCc1cccc2[nH]c(-c3n[nH]c4ncc(-c5ccc(S(N)(=O)=O)cc5)cc34)nc12 [Cpd 36, 4-[3-(4-methoxymethyl-1H-benzoimidazol-2-yl)-1H-pyrazolo[3,4-b]pyridin-5-yl]benzenesulfonamide] | 546 | 436 | > 100000 | > 1000 | > 10000 | 1430 | 212 | 43.4 | – | – |
| COCc1cccc2[nH]c(-c3n[nH]c4ncc(-c5cn(S(=O)(=O)c6ccccc6)c6ccccc56)cc34)nc12 [Cpd 38, 5-(1-benzenesulfonyl-1H-indol-3-yl)-3-(4-methoxymethyl-1H-benzoimidazol-2-yl)-1H-pyrazolo[3,4-b]pyridine] | > 10000 | > 1000 | > 100000 | ~100000 | > 100000 | 1900 | 56.8 | 39.4 | – | – |

Further compounds by falling IC50 (CDK1), results first:

| IC50 (CDK1) [nM] | IC50 (VEGF-R2) [nM] | IC50 (HER2) [nM] | IC50 (Aurora-A) [nM] | IC50 (RET) [nM] | IC50 ([1]; HeLa) [nM] | IC50 (A375 malignant melanoma) [nM] | IC50 (HCT-116 colon carcinoma; HCT-116, HCT-116 cells) [nM] | SMILES | IC50 [1] [nM] | IC50 (HCT-116 colon carcinoma; HCT-116 cells) [nM] |
| --- | --- | --- | --- | --- | --- | --- | --- | --- | --- | --- |
| 541 | > 10000 | > 100000 | > 10000 | > 100000 | > 10000 | > 10000 | > 10000 | O=C(O)c1cccc2[nH]c(-c3n[nH]c4ncc(-c5cncc6ccccc56)cc34)nc12 [Cpd 17, 2-(5-isoquinolin-4-yl-1H-pyrazolo[3,4-b]pyridin-3-yl)-1H-benzoimidazole-4-carboxylic acid] | – | – |
| 162 | 2790 | > 10000 | 4830 | > 10000 | 804 | 472 | 899 | O=C(c1cccc2[nH]c(-c3n[nH]c4ncc(-c5cncc6ccccc56)cc34)nc12)N1CCCC1 [Cpd 21, [2-(5-isoquinolin-4-yl-1H-pyrazolo[3,4-b]pyridin-3-yl)-1H-benzoimidazole-4-yl]-pyrrolidin-1-yl-methanone] | – | – |
| 137 | 2120 | > 10000 | 1990 | ~100000 | 594 | 188 | 554 | O=C(c1cccc2[nH]c(-c3n[nH]c4ncc(-c5cncc6ccccc56)cc34)nc12)N1CCCCC1 [Cpd 22, [2-(5-isoquinolin-4-yl-1H-pyrazolo[3,4-b]pyridin-3-yl)-1H-benzoimidazol-4-yl]-piperidin-1-yl-methanone] | – | – |
| 113 | ~100000 | > 10000 | > 1000 | > 100000 | 3800 | 2020 | 1220 | CN(C)CCNC(=O)c1cccc2[nH]c(-c3n[nH]c4ncc(-c5cncc6ccccc56)cc34)nc12 [Cpd 25, 2-(5-isoquinolin-4-yl-1H-pyrazolo[3,4-b]pyridin-3-yl)-1H-benzoimidazole-4-carboxylic acid (2-dimethylamino-ethyl)-amide] | – | – |
| 11.6 | 232 | > 100000 | ~1000 | ~1000 | 205 | 69.7 | 255 | O=C(NC1CCC(O)CC1)c1cccc2[nH]c(-c3n[nH]c4ncc(-c5cncc6ccccc56)cc34)nc12 (stereo not shown) [Cpd 29, 2-(5-isoquinolin-4-yl-1H-pyrazolo[3,4-b]pyridin-3-yl)-1H-benzoimidazole-4-carboxylic acid (4-hydroxy-cyclohexyl)-amide] | – | – |
